Measurements as given in patent US6689767B2, “Triterpenes having antibacterial activity” (Regents of the University of Minnesota, priority 2000, dated 2004).

Columns and labels:
Staphylococcus aureus [1] = test: Kirby-Bauer disk diffusion growth inhibition, Staphylococcus aureus; assay type: cell-based; conditions: for Active against: Table 1 summary, S. aureus
Procedure: (§1) The compounds disclosed herein were tested for growth inhibition against four strains of bacteria: Escherichia coli, Staphylococcus aureus, methicillin-resistant Staphylococcus aureus, and Bacillus subtilis. […] They represent […]. E. coli is a gram-negative, non-spore forming, rod-shaped, opportunistic pathogen that resides in the human digestive tract. S. aureus is a gram positive coccus, is usually found morphologically as a […], and is an opportunistic human pathogen, often residing on or in the skin. B. subtilis is a gram positive spore-forming rod. Its native environment is the soil. The chemicals were tested for growth-inhibition of the bacteria by the Kirby-Bauer method. See, e.g., Microbiology, third edition; Lansing M. Prescott, John P. Harley, and Donald A. Klein; Wm. C. Brown Publishers.
(§2) Mueller-Hinton agar (Difco Lab, Michigan) was prepared according to the manufacturer's directions, and 20 ml was dispensed in each sterile petri dish. Sterile nutrient broth (Difco Lab, Michigan) was also prepared according to the manufacturer's directions.
(§3) Bacteria were grown in liquid nutrient broth for 18 hours at 37° C. until they were turbid.
(§4) An aliquot of 0.5 ml of cultured bacteria was aseptically transferred to the surface of a Mueller-Hinton agar plat, and spread using a cotton-tipped swab. Plates were then allowed to dry for 5 minutes. Then a 10 mm diameter filter paper disk impregnated with the test chemical was placed with sterile forceps on the plate. The disks were impregnated with 100 μl of a solution of the test compound in DMSO or in water, at the indicated concentrations in Table 1.
(§5) The zones of inhibition were measured after 18 hours growth at 37° C. Tests were done in triplicate.
(§6) Additional compounds were tested for activity against E. coli, laboratory strain S. aureus (not methicillin resistant), and B. subtilis. The compounds were tested by the disk diffusion method, as in Example 1, with application of a 10 mg/mil solution of the test compound in DMSO.
(§7) Derivatives of lupeol were tested for inhibition of bacterial growth using the Kirby-Bauer disk diffusion method and by growth in liquid culture. For the disk diffusion method, compounds were dissolved in DMSO and 100 μl was added to the 10 mm filter paper disk. The amount of compound applied to the disk varied. The amount applied for each compound was as follows: lupeol (50 μg), lupeol-3-maleate (15 μg), lupeol-3-thiodiglycolate (15 μg), lupeol-3-dimethyl succinate (60 μg), lupeol-3-phosphate (30 μg), lupenone (50 μg), lupenon-3-oxime (50 μg), lupeol-3-amine (50 μg), lupenon-1,2-ene-2-ol (50 μg). In liquid culture, the compounds were dissolved in DMSO at 1 mg/ml and then 100 μl was added to 7 ml of sterile broth, along with a 1/200 dilution of freshly grown bacterial liquid culture.

bacteria = test: Summary statements over the antibacterial assays above; assay type: cell-based; conditions: for active against at least one strain of bacteria in the assays above: summary list; for overall activity in Example 35: S. aureus, S. epidermidis, E. faecalis, disk diffusion and liquid growth
Enterococcus faecalis = test: Kirby-Bauer disk diffusion of lupeol derivatives, Enterococcus faecalis; assay type: cell-based; conditions: for Active against: Table 1 summary, E. faecalis
Procedure: as §7

[2] = system: Staphylococcus epidemidis; test: Kirby-Bauer disk diffusion of lupeol derivatives, Staphylococcus epidermidis; assay type: cell-based; conditions: for activity against S. epidermidis: Example 35, disk diffusion and liquid growth; for Active against: Table 1 summary, S. epidermidis
Procedure: as §7

Staphylococcus epidermis = test: Growth in liquid culture, optical density, S. epidermidis; assay type: cell-based, Staphylococcus epidermidis; conditions: 600 nm, 24 hours growth, test compound at 14 μg per ml; None = 0.07
Procedure: as §7

Enterococcus faecilis = test: Growth in liquid culture, optical density, E. faecalis; assay type: cell-based, Enterococcus faecalis; conditions: 600 nm, 24 hours growth, test compound at 14 μg per ml; None = 0.85
Procedure: as §7

Staphylococcus aureus [3] = test: Growth in liquid culture, optical density, S. aureus; assay type: cell-based; conditions: 600 nm, 24 hours growth, test compound at 14 μg per ml; None = 0.08
Procedure: as §7

Bacillus subtilis = test: Kirby-Bauer disk diffusion growth inhibition, Bacillus subtilis; assay type: cell-based; conditions: Bacillus subtilis
Procedure: as §1, §2, §3, §4, §5, §6

Escherichia coli = test: Kirby-Bauer disk diffusion growth inhibition, Escherichia coli; assay type: cell-based; conditions: Escherichia coli
Procedure: as §1, §2, §3, §4, §5, §6

[4] = Example 35, 15 μg applied to 10 mm disk in DMSO
[5] = 15 μg applied to 10 mm disk in DMSO
[6] = 60 μg applied to 10 mm disk in DMSO
[7] = Example 35, 50 μg applied to 10 mm disk in DMSO
[8] = 50 μg applied to 10 mm disk in DMSO
[9] = 30 μg applied to 10 mm disk in DMSO
[10] = reference antibiotic, amount on disk not stated

| Structure (SMILES) | Active against (Staphylococcus aureus [1]) | active against at least one strain of bacteria in the assays above (bacteria) | Active against (Enterococcus faecalis) | Active against [2] | Optical Density of S. epiderm (Staphylococcus epidermis) | Optical Density of E. faecalis (Enterococcus faecilis) | Optical Density of S. aureus (Staphylococcus aureus [3]) | Zone of inhibition (mm) against S. aureus (Staphylococcus aureus [1]; [7]) | Zone of inhibition (mm) against E. faecalis (Enterococcus faecalis; [8]) | Zone of inhibition (mm) against S. epiderm. [2, 8] | also measured |
| --- | --- | --- | --- | --- | --- | --- | --- | --- | --- | --- | --- |
| CC(=O)OC1CC[C@@]2(C)C(CC[C@]3(C)C2CCC2C4C5OC(=O)C4(CCC5(C)C)CC[C@@]23C)C1(C)C (stereo partly shown) [Allobetulin lactone-3-acetate, 3-O-acetyl allobetulin-lactone] |  |  |  |  |  |  |  |  |  |  | melting point: 312.5 to 315.4 °C (dec.) |
| C=C(C)C1CCC2(C)CCC3(C)C(CCC4C5(C)CCC(OC(=O)C=CC(=O)O)C(C)(C)C5CCC43C)C12 (stereo not shown) [Lupeol-3-maleate] | S. aureus, | active against at least one strain of bacteria | E. faecalis | S. epidermidis, | 0.04 | 0.03 | 0.06 |  |  |  | Zone of inhibition (mm) against S. aureus (Staphylococcus aureus [1]; [4]): 0.4 mm; Zone of inhibition (mm) against E. faecalis (Enterococcus faecalis; [5]): 1.15 mm; Zone of inhibition (mm) against S. epiderm. [2, 5]: 0.5 mm; activity against S. epidermidis [2]: active |
| C=C(C)C1CCC2(C)CCC3(C)C(CCC4C5(C)CCC(OC(=O)CC(C)(C)C(=O)O)C(C)(C)C5CCC43C)C12 (stereo not shown) [Lupeol-3-(3′,3′-dimethyl)succinate] | S. aureus | active against at least one strain of bacteria |  |  | 0.06 | 0.07 | 0.06 |  |  |  | Zone of inhibition (mm) against S. aureus (Staphylococcus aureus [1]; Example 35, 60 μg applied to 10 mm disk in DMSO): 0.5 mm; Zone of inhibition (mm) against E. faecalis (Enterococcus faecalis; [6]): 0 mm; Zone of inhibition (mm) against S. epiderm. [2, 6]: 0 mm |
| C=C(C)[C@@H]1CC[C@]2(C)CC[C@]3(C)[C@H](CC[C@@H]4[C@@]5(C)CCC(=NO)C(C)(C)[C@@H]5CC[C@]43C)[C@@H]12 [Lupenon oxime, Lupenon-3-oxime] | S. aureus, | active against at least one strain of bacteria | E. faecalis |  | 0.06 | 0.45 | 0.06 | 0.4 mm | 0.6 mm | 0 mm |  |
| C=C(C)[C@@H]1CC[C@]2(C)CC[C@]3(C)[C@H](CC[C@@H]4[C@@]5(C)CCC(N)C(C)(C)[C@@H]5CC[C@]43C)[C@@H]12 (stereo partly shown) [Lupeol-3-amine] | S. aureus, | active against at least one strain of bacteria | E. faecalis |  | 0.06 | 0.04 | 0.06 | 0.3 mm | 0.5 mm | 0 mm |  |
| C=C(C)[C@@H]1CC[C@]2(C)CC[C@]3(C)[C@H](CC[C@@H]4[C@@]5(C)CC[C@H](OP(=O)(O)O)C(C)(C)[C@@H]5CC[C@]43C)[C@@H]12 [Lupeol-3-phosphate] | S. aureus, | active against at least one strain of bacteria | E. faecalis |  | 0.06 | 0.04 | 0.06 |  |  |  | Zone of inhibition (mm) against S. aureus (Staphylococcus aureus [1]; Example 35, 30 μg applied to 10 mm disk in DMSO): 0.5 mm; Zone of inhibition (mm) against E. faecalis (Enterococcus faecalis; [9]): 0.5 mm; Zone of inhibition (mm) against S. epiderm. [2, 9]: 0 mm |
| C=C(C)[C@@H]1CC[C@]2(C)CC[C@]3(C)[C@H](CC[C@@H]4[C@@]5(C)C=C(O)C(=O)C(C)(C)[C@@H]5CC[C@]43C)[C@@H]12 [Lupenon-1,2-ene-2-ol] | S. aureus, | active against at least one strain of bacteria | E. faecalis | S. epidermidis, | 0.006 | 0.01 | 0.04 | 0.85 mm | 0.6 mm | 2.65 mm | overall activity in Example 35 (bacteria): most active compound against almost all the bacteria |
| C=C(C)[C@@H]1CC[C@]2(C)CC[C@]3(C)[C@H](CC[C@@H]4[C@@]5(C)CCC(=O)C(C)(C)[C@@H]5CC[C@]43C)[C@@H]12 [Lupenone] | S. aureus, | active against at least one strain of bacteria | E. faecalis |  | 0.03 | 0.04 | 0.04 | 1.25 mm | 0.5 mm | 1 mm | overall activity in Example 35 (bacteria): excellent activity |
| C=C(C)[C@@H]1CC[C@]2(C)CC[C@]3(C)[C@H](CC[C@@H]4[C@@]5(C)CC[C@H](OC(=O)CSCC(=O)O)C(C)(C)[C@@H]5CC[C@]43C)[C@@H]12 [Lupeol-3-thiodiglycolate] | S. aureus, | active against at least one strain of bacteria | E. faecalis | S. epidermidis, | 0.035 | 0.04 | 0.06 |  |  |  | Zone of inhibition (mm) against S. aureus (Staphylococcus aureus [1]; [4]): 0.3 mm; Zone of inhibition (mm) against E. faecalis (Enterococcus faecalis; [5]): 0.75 mm; Zone of inhibition (mm) against S. epiderm. [2, 5]: 0.5 mm; activity against S. epidermidis [2]: active |
| C=C(C)[C@@H]1CC[C@]2(C)CC[C@@]3(C)C(CCC4[C@@]5(C)CC[C@H](O)C(C)(C)C5CC[C@]43C)C12 (stereo partly shown) [Lupeol] | S. aureus, | active against at least one strain of bacteria | Enterococcus faecalis | S. epidermidis | 0.04 | 0.03 | 0.06 |  |  |  | zone of inhibition at 0.125 µg/mL (Staphylococcus aureus [1]; Staphylococcus aureus, 125 ng/ml in water, 100 μl on 10 mm disk, 18 hours 37° C., read-out: Zone of inhibition Staphylococcus aureus): 0 mm; zone of inhibition at 50 µg/disc (Staphylococcus aureus [1]; Staphylococcus aureus, Example 35, 50 μg applied to 10 mm disk in DMSO, read-out: Zone of inhibition (mm) against S. aureus): 1 mm; zone of inhibition at 50 µg/disc (Enterococcus faecalis; Enterococcus faecalis, 50 μg applied to 10 mm disk in DMSO, read-out: Zone of inhibition (mm) against E. faecalis): 1.4 mm; activity against S. epidermidis [2]: active; zone of inhibition at 50 µg/disc ([2]; Staphylococcus, 50 μg applied to 10 mm disk in DMSO, read-out: Zone of inhibition (mm) against S. epiderm.): 0 mm; zone of inhibition at 0.125 µg/mL (Bacillus subtilis; 125 ng/ml in water, 100 μl on 10 mm disk, 18 hours 37° C., read-out: Zone of inhibition Bacillus subtilis): 0 mm; zone of inhibition at 0.125 µg/mL (Escherichia coli; 125 ng/ml in water, 100 μl on 10 mm disk, 18 hours 37° C., read-out: Zone of inhibition Escherichia coli): 0 mm |
| [H]/N=C(/N)N[C@H]1[C@H](O)[C@@H](O)[C@H](O[C@@H]2O[C@@H](C)[C@](O)(C=O)[C@H]2O[C@@H]2O[C@@H](CO)[C@H](O)[C@@H](O)[C@@H]2NC)[C@@H](N/C(N)=N\[H])[C@@H]1O [Streptomycin, reference compound] |  |  |  |  |  |  |  |  |  |  | Zone of inhibition (mm) against S. aureus (Staphylococcus aureus [1]; Example 35, reference antibiotic, amount on disk not stated): 1.25 mm; zone of inhibition at 10 µg/disc (Staphylococcus aureus [1]; Staphylococcus aureus, control antibiotic, 10 mcg): 15 mm; amount applied to the disk required for inhibition of S. aureus (Staphylococcus aureus [1]; disk diffusion assay, laboratory strain (not methicillin resistant)): 10 µg; Zone of inhibition (mm) against E. faecalis (Enterococcus faecalis; [10]): 0 mm; Zone of inhibition (mm) against S. epiderm. [2, 10]: 0 mm; zone of inhibition at 10 µg/disc (Bacillus subtilis; control antibiotic, 10 mcg): 24 mm; zone of inhibition at 10 µg/disc (Escherichia coli; control antibiotic, 10 mcg): 20 mm |
